{
  "source": "paper PMC8279409",
  "about": "“Novel Mixed NOP/Opioid Receptor Peptide Agonists” (Journal of Medicinal Chemistry, 2021)",
  "key": {"[1]": {"target": "T1, human NOP receptor (Homo sapiens, UniProt P41146)", "T1 construct": "expressed in transfected cells; host or cells: CHO cells stably coexpressing the receptor and chimeric Gαqi5", "T1 sequence (P41146 whole entry)": "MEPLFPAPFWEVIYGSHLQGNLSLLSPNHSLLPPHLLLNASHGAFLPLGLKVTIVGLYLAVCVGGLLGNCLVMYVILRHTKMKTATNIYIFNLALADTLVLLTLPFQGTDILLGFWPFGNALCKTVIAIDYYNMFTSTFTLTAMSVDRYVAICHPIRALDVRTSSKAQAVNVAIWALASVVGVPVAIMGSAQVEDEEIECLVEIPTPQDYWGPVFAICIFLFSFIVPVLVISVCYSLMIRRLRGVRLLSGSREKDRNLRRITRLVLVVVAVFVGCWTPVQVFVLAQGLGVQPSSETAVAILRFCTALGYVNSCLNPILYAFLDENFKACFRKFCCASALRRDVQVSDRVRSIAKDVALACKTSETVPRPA", "experiment": "Calcium mobilization, NOP receptor", "format": "cell-based", "details": "for NOP pEC50 (CL95%): CHO cells coexpressing human NOP and Gαqi5, Fluo-4 AM, 37 °C, mean of at least three experiments in duplicate, CL95% in brackets; for NOP/mu CR (concentration ratio): calcium mobilization, NOP versus mu; for Emax: mean ± SEM of at least three experiments in duplicate, SEM", "experimental": "CHO cells stably coexpressing the human NOP or kappa or the mu receptor and the C-terminally modified Gαqi5 and CHO cells coexpressing the delta receptor and the GαqG66Di5 protein were generated and cultured as described previously.[45],[46] Cells were maintained in Dulbecco’s modified Eagle’s medium/nutrient mixture F-12 (DEMEM/F-12) supplemented with 10% FBS, 100 U/mL penicillin and 100 μg/mL streptomycin, 100 μg/mL hygromicin B, and 200 μg/mL G418 and cultured at 37 °C in 5% CO2 humidified air. Cells were seeded at a density of 50,000 cells/well into 96-well black, clear-bottom plates. The following day, the cells were incubated with Hanks’ balanced salt solution (HBSS) supplemented with 2.5 mM probenecid, 3 μM of the calcium-sensitive fluorescent dye Fluo-4 AM, and 0.01% pluronic acid for 30 min at 37 °C. After that time, the loading solution was aspirated and 100 μL/well of HBSS supplemented with 20 mM HEPES, 2.5 mM probenecid, and 500 μM brilliant black was added. Serial dilutions were carried out in HBSS/HEPES (20 mM) buffer (containing 0.02% BSA fraction V). After placing both plates (cell culture and master plate) into the fluorometric imaging plate reader FlexStation II (Molecular Devices, Sunnyvale, CA), fluorescence changes were measured. On-line additions were carried out in a volume of 50 μL/well. To facilitate drug diffusion into the wells, the present studies were performed at 37 °C. Maximum change in fluorescence, expressed as percent over the baseline fluorescence, was used to determine agonist response.\nThe pharmacological terminology adopted in this paper is consistent with IUPHAR recommendations.[59] All data are expressed as the mean ± standard error of the mean (SEM) of at least three experiments performed in duplicate. […] Concentration-response curves to agonists were fitted to the classical four-parameter logistic nonlinear regression model:\nEffect = Baseline + (Emax – Baseline)/(1 + 10^(LogEC50 – Log[compound]) × Hillslope). Curve fitting was performed using PRISM 6.0 (GraphPad Software Inc., San Diego)."}, "[2]": {"target": "T2, human mu receptor (Homo sapiens, UniProt P35372)", "T2 construct": "expressed in transfected cells; host or cells: CHO cells stably coexpressing the receptor and chimeric Gαqi5", "T2 sequence (P35372 whole entry)": "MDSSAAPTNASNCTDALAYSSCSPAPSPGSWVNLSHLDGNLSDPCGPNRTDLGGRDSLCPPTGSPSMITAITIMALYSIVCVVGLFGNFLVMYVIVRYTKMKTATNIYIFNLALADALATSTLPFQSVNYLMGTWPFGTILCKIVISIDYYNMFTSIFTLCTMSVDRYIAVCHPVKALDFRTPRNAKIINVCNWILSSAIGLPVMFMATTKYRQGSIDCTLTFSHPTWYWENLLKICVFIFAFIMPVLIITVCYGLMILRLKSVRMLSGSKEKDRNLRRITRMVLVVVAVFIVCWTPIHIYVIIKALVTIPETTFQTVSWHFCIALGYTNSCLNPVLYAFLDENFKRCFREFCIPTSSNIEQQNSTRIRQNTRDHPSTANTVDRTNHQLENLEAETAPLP", "experiment": "Calcium mobilization, mu opioid receptor", "format": "cell-based", "details": "for mu pEC50 (CL95%): CHO cells coexpressing human mu receptor and Gαqi5, Fluo-4 AM, 37 °C, mean of at least three experiments in duplicate, CL95% in brackets; for pEC50_mu: molecular formula strings CSV, repeats calcium mobilization values of Tables 1-3; for Emax / activation at 10 µM / mu Emax ± S.E.M.: percent over the baseline fluorescence; for Emax / mu Emax ± S.E.M.: mean ± SEM of at least three experiments in duplicate; for Emax / activation at 10 µM: SEM; for activation at 10 µM: mean ± SEM"}, "[3]": {"details": "read-out: NOP Emax ± S.E.M., Table 1 series, maximum change in fluorescence as percent over the baseline fluorescence"}, "[4]": {"details": "read-out: NOP Emax ± S.E.M., Table 2 series, percent over the baseline fluorescence"}, "[5]": {"details": "read-out: NOP Emax ± S.E.M., Table 3 series, percent over the baseline fluorescence"}, "[6]": {"details": "read-out: mu Emax ± S.E.M., Table 3 series"}, "[7]": {"details": "read-out: mu effect at 10 μM (crc incomplete), Table 2 series"}, "[8]": {"details": "read-out: mu Emax ± S.E.M, Table 1 series"}},
  "note": "Where two headings read alike, the source gives them in different places. Where a SMILES comes first, the peptide text is derived from it. Where no end group is shown, it is not given here. [ ]: non-standard residue; d: D form. 1Nal = N[C@@H](Cc1cccc2ccccc12)C(=O)O; Dmt = Cc1cc(O)cc(C)c1C[C@H](N)C(=O)O; Nva = CCC[C@H](N)C(=O)O",
  "data": [
    {"compound": "YGGFTGARKSARK-NH2 [Compound 3, [Tyr^1]N/OFQ(1-13)-NH2, reference compound]", "values": [
      {"measurement": "NOP pEC50 (CL95%)", "setting": "[1]; Table 1 series, FlexStation II", "value": "9.23 (9.07–9.39)"},
      {"measurement": "NOP/mu CR (concentration ratio)", "setting": "[1]; Table 1 series", "value": 0.001},
      {"measurement": "NOP/mu CR (concentration ratio)", "setting": "[1]; Table 3 series", "value": "<0.001"},
      {"measurement": "Emax", "setting": "[1]; [3]", "value": "380 ± 11", "unit": "%"},
      {"measurement": "Emax", "setting": "[1]; [4]", "value": "266 ± 14", "unit": "%"},
      {"measurement": "Emax", "setting": "[1]; [5]", "value": "236 ± 13", "unit": "%"},
      {"measurement": "mu pEC50 (CL95%)", "setting": "[2]; Table 1 series", "value": "crc incomplete; 10 μM: 197 ± 69"},
      {"measurement": "mu pEC50 (CL95%)", "setting": "[2]; Table 2 series", "value": "crc incomplete; 10 μM: 217 ± 29"},
      {"measurement": "pEC50_mu", "setting": "[2]", "value": "crc incomplete"},
      {"measurement": "Emax", "setting": "[2]; [6]", "value": "251 ± 34", "unit": "%"},
      {"measurement": "activation at 10 µM", "setting": "[2]; read-out: mu effect at 10 μM (crc incomplete), Table 1 series", "value": "197 ± 69", "unit": "%"},
      {"measurement": "activation at 10 µM", "setting": "[2]; [7]", "value": "217 ± 29", "unit": "%"}
    ]},
    {"compound": "C[C@H](NC(=O)CNC(=O)[C@@H](NC(=O)[C@H](Cc1ccccc1)NC(=O)CNC(=O)CNC(=O)[C@@H](N)Cc1ccccc1)[C@@H](C)O)C(=O)N[C@@H](CCCNC(=N)N)C(=O)N[C@@H](CCCCN)C(=O)N[C@@H](CO)C(=O)N[C@@H](C)C(=O)N[C@@H](CCCNC(=N)N)C(=O)N[C@@H](CCCCN)C(N)=O", "note": "[Compound 1, N/OFQ(1-13)NH2, reference compound]", "values": [
      {"measurement": "mu pEC50 (CL95%)", "setting": "[2]; Table 1 series", "value": "inactive"},
      {"measurement": "mu Emax ± S.E.M.", "setting": "[2]; Table 1 series", "value": "inactive"},
      {"measurement": "mu pEC50 (CL95%)", "setting": "[2]; Table 2 series", "value": "inactive"},
      {"measurement": "mu Emax ± S.E.M.", "setting": "[2]; Table 2 series", "value": "inactive"},
      {"measurement": "mu pEC50 (CL95%)", "setting": "[2]; Table 3 series", "value": "inactive"},
      {"measurement": "mu Emax ± S.E.M.", "setting": "[2]; Table 3 series", "value": "inactive"},
      {"measurement": "pEC50_mu", "setting": "[2]", "value": "inactive"}
    ]},
    {"compound": "Cc1cc(O)cc(C)c1C[C@H](N)C(=O)NCC(=O)NCC(=O)N[C@@H](Cc1ccccc1)C(=O)N[C@@H](Cc1cccc2ccccc12)C(=O)NCC(=O)N[C@@H](C)C(=O)N[C@@H](CCCNC(=N)N)C(=O)N[C@@H](CCCCN)C(=O)N[C@@H](CO)C(=O)N[C@@H](C)C(=O)N[C@@H](CCCNC(=N)N)C(=O)N[C@@H](CCCCN)C(N)=O", "note": "[Compound 33, [Dmt^1,1Nal^5]N/OFQ(1-13)-NH2] (H-[Dmt]GGF[1Nal]GARKSARK-NH2)", "values": [
      {"measurement": "Emax", "setting": "[1]; [5]", "value": "286 ± 19", "unit": "%"},
      {"measurement": "Emax", "setting": "[2]; [6]", "value": "349 ± 20", "unit": "%"}
    ]},
    {"compound": "YGGFLGARKSARK-NH2 [Compound 11, [Tyr^1,Leu^5]N/OFQ(1-13)-NH2]", "values": [
      {"measurement": "NOP pEC50 (CL95%)", "setting": "[1]; Table 1 series, FlexStation II", "value": "8.03 (7.46–8.60)"},
      {"measurement": "NOP/mu CR (concentration ratio)", "setting": "[1]; Table 1 series", "value": 0.01},
      {"measurement": "Emax", "setting": "[1]; [3]", "value": "339 ± 24", "unit": "%"},
      {"measurement": "mu pEC50 (CL95%)", "setting": "[2]; Table 1 series", "value": "6.08 (5.95–6.21)"},
      {"measurement": "Emax", "setting": "[2]; [8]", "value": "339 ± 25", "unit": "%"}
    ]},
    {"compound": "CCC[C@H](NC(=O)[C@H](Cc1ccccc1)NC(=O)CNC(=O)CNC(=O)[C@@H](N)Cc1ccc(O)cc1)C(=O)NCC(=O)N[C@@H](C)C(=O)N[C@@H](CCCNC(=N)N)C(=O)N[C@@H](CCCCN)C(=O)N[C@@H](CO)C(=O)N[C@@H](C)C(=O)N[C@@H](CCCNC(=N)N)C(=O)N[C@@H](CCCCN)C(N)=O", "note": "[Compound 13, [Tyr^1,Nva^5]N/OFQ(1-13)-NH2] (H-YGGF[Nva]GARKSARK-NH2)", "values": [
      {"measurement": "NOP pEC50 (CL95%)", "setting": "[1]; Table 1 series, FlexStation II", "value": "8.43 (7.55–9.31)"},
      {"measurement": "NOP/mu CR (concentration ratio)", "setting": "[1]; Table 1 series", "value": 0.007},
      {"measurement": "Emax", "setting": "[1]; [3]", "value": "358 ± 14", "unit": "%"},
      {"measurement": "mu pEC50 (CL95%)", "setting": "[2]; Table 1 series", "value": "6.25 (5.59–6.91)"},
      {"measurement": "Emax", "setting": "[2]; [8]", "value": "313 ± 19", "unit": "%"}
    ]},
    {"compound": "YGGFWGARKSARK-NH2 [Compound 17, [Tyr^1,Trp^5]N/OFQ(1-13)-NH2]", "values": [
      {"measurement": "NOP pEC50 (CL95%)", "setting": "[1]; Table 2 series", "value": "7.27 (7.19–7.35)"},
      {"measurement": "NOP/mu CR (concentration ratio)", "setting": "[1]; Table 2 series", "value": 0.07},
      {"measurement": "Emax", "setting": "[1]; [4]", "value": "288 ± 28", "unit": "%"},
      {"measurement": "mu pEC50 (CL95%)", "setting": "[2]; Table 2 series", "value": "crc incomplete; 10 μM: 193 ± 31"},
      {"measurement": "pEC50_mu", "setting": "[2]", "value": "crc incomplete"},
      {"measurement": "activation at 10 µM", "setting": "[2]; [7]", "value": "193 ± 31", "unit": "%"}
    ]}
  ]
}
